One compound from patent US20140364331A1, “RECURRENT GENE FUSIONS IN PROSTATE CANCER” (THE REGENTS OF THE UNIVERSITY OF MICHIGAN, priority 2009, published 2014) can be followed below.

The assay has as its system UBE2L3-KRAS fusion protein. The assay can be described thus: Western blotting of UBE2L3-KRAS fusion protein in cells treated with bortezomib. It counts as cell-based, human. The method, then:
The prostate cancer cell lines DU145 were transfected with siRNA duplex (Dharmacon, Lafayette, Colo., USA) against UBE2L3 (5′-CCACCGAAGATCACATTTA-3′; SEQ ID NO:1), KRAS (5′-GAAGTTATGGAATTCCTTT-3′; SEQ ID NO:2) or the fusion junction (5′-CCGACCAAGGCCTGCTGAA-3′; SEQ ID NO:3) by oligofectamine (Invitrogen). DU145 transfected with non-targeting siRNA and RWPE cells was used as negative control. Post 48 hours transfection, cells were homogenized in NP40 lysis buffer (50 mM Tris-HCl, 1% NP40, pH 7.4, Sigma, St. Louis, Mo.), and complete proteinase inhibitor mixture (Roche, Indianapolis, Ind.). Ten micrograms of each protein extract were boiled in sample buffer, separated by SDS-PAGE, and transferred onto Polyvinylidene Difluoride membrane (GE Healthcare, Piscataway, N.J.). The membrane was incubated for one hour in blocking buffer [Tris-buffered saline, 0.1% Tween (TBS-T), 5% nonfat dry milk] and incubated overnight at 4° C. with the following antibodies: anti-RAS mouse monoclonal (1:1000 in blocking buffer, Millipore Cat #: 05-516), anti-KRAS rabbit polyclonal (1:1000, Proteintech Group Inc., Cat #: 12063-1-AP) and anti-beta Actin mouse monoclonal (1:5000, Sigma Cat #: A5441) antibodies. Following three washes with TBS-T, the blot was incubated with horseradish peroxidase-conjugated secondary antibody and the signals visualized by enhanced chemiluminescence system as described by the manufacturer (GE Healthcare). To test fusion protein expression in multiple prostate derived cell lines, lysates from DU145, PrEC, RWPE, 22RV1, VCaP, PC3 either untreated or treated with 500 nM bortezomib for 12 hours were used. Bortezomib treated HEK cells over-expressing UBE2L3-KRAS fusion protein was used as a positive control. […] For ERK activation analysis NIH 3T3 cells were starved for 12 hours before immunoblot analysis using phospho erk1/2 antibody. All antibodies for the MAPK signaling proteins were purchased from Cell Signaling Technologies.
(In general: In western blotting, separated proteins are transferred to a membrane and probed.)

Take `CC(C)C[C@H](NC(=O)[C@H](Cc1ccccc1)NC(=O)c1cnccn1)B(O)O` [bortezomib]: where the note is “DU145 cells, 500 nM bortezomib for 12 hours”, the “levels of UBE2L3-KRAS protein expression (Western blot)” value is “enhanced the levels of UBE2L3-KRAS protein expression”. Besides, the “expression of the UBE2L3-KRAS fusion protein (Western blot)” value (HEK293 cells over-expressing UBE2L3-KRAS construct, 500 nM bortezomib for 12 hours) was “expression of the fusion protein was clearly apparent” and the “expression of the UBE2L3-KRAS fusion protein (Western blot)” value (RWPE prostate epithelial cells overexpressing UBE2L3-KRAS) was “proteosomal inhibition with bortezomib was required”.
